Common to all, as to format: cell-based
For one test, the target named is BaF3 (EGFR/V769insASV) (Homo sapiens, UniProt P00533, DUP767-769, cells depend on it). The test can be described thus: Test 15: EGFR exon 20 inserted V769insASV cell proliferation test. As to conditions: 72 hours, Cell Titer-Glo, read-out: Test 15 IC50. The protocol: Test 15: EGFR Exon 20 Inserted V769insASV Cell Proliferation Test
(§1) The number of viable cells in the culture was measured according to the protocol described in Promega's Cell Titer-Glo Luminescent cell Viability Assay (Promega catalog number #G7570). 90 μl of cells (3000 cells/well) were cultured in growth medium in a Corning black transparent bottom 96-well plate, and cultured in a 5% CO2 humidified incubator at 37° C. overnight. The compound serially diluted in 100% DMSO was added to the cells using a pipette, and the cells were incubated for another 72 hours. 100 μl of the mixed Cell Titer-Glo reagent was added to the cells in the 96-well culture plate to lyse the cells and mix gently. Subsequently, the […] was detected on the Envision microplate detector to obtain the data of each compound. Finally, the data was input into a suitable software package (such as Prism) for curve fitting analysis.
(In ATP-based viability assays light output follows the ATP content of the culture.)

Test [1] concerns the target T1, BaF3 (EGFR/D770insSVD) (Homo sapiens, UniProt P00533, cells depend on it, form not given).
T1 construct: other: A763insFQEA, V769ins
As to the kind of experiment: Test 13: EGFR exon 20 inserted D770insSVD cell proliferation test. As to conditions: A763insFQEA, V769insASV, D770insSVD (tests 13-15), in words. The protocol: (§2) Test 13: EGFR Exon 20 Inserted D770insSVD Cell Proliferation Test
as §1, with “(3,000” for “(3000”

Test [2] deals with T2, BaF3 (EGFR/D770insSVD) (Homo sapiens, UniProt P00533, DUP768-770, cells depend on it).
T2 construct: Test 13 IC50 (nM); other: BaF3 (EGFR/D770insSVD), 72 hours, Cell Titer-Glo
Described as above. As to conditions: BaF3 (EGFR/D770insSVD), 72 hours, Cell Titer-Glo; read-out: Test 13 IC50. The protocol: as §2
as §1, with “(3,000” for “(3000”

In the next test the target is BaF3 (EGFR/A763insFQEA) (Homo sapiens, UniProt P00533, INS763FQEA, cells depend on it). As to the kind of experiment: Test 14: EGFR exon 20 inserted A763insFQEA cell proliferation test. As to conditions: 72 hours, Cell Titer-Glo, read-out: Test 14 IC50. The protocol:
Test 14: EGFR Exon 20 Inserted A763insFQEA Cell Proliferation Test
as §1, with “(3,000” for “(3000”

The next test concerns the target BaF3 (EGFR-D770insSVD) (Homo sapiens, UniProt P00533, DUP768-770, cells depend on it). As to the kind of experiment: Test 2: BaF3 (EGFR-D770insSVD) cell proliferation test. As to conditions: 72 hours, Cell Titer-Glo, read-out: Test 2 - IC50. The protocol: Test 2: BaF3 (EGFR-D770insSVD) Cell Proliferation Test
BaF3 (EGFR-D770insSVD) was cultured in RPMI1640 medium containing 10% fetal bovine serum and 2 mM glutamine. The cells were grown at 37° C. in a humidified incubator with 5% CO2.
as §1, with “(3,000” for “(3000”

A further test has as its target BaF3 (EGFR-V769insASV) (Homo sapiens, UniProt P00533, DUP767-769, cells depend on it). The test can be described thus: Test 4: BaF3 (EGFR-V769insASV) cell proliferation test. As to conditions: 72 hours, Cell Titer-Glo, read-out: Test 4 - IC50. The protocol: Test 4: BaF3 (EGFR-V769insASV) Cell Proliferation Test
BaF3 (EGFR-V769insASV) was cultured in RPMI1640 medium containing 10% fetal bovine serum and 2 mM glutamine. The cells were grown at 37° C. in a humidified incubator with 5% CO2.
as §1, with “(3,000” for “(3000”

The target in a further test is BaF3 (EGFR-A763insFQEA) (Homo sapiens, UniProt P00533, INS763FQEA, cells depend on it). As to the kind of experiment: Test 3: BaF3 (EGFR-A763insFQEA) cell proliferation test. As to conditions: 72 hours, Cell Titer-Glo, read-out: Test 3 - IC50. The protocol:
Test 3: BaF3 (EGFR-A763insFOEA) Cell Proliferation Test
BaF3 (EGFR-A763insFQEA) was cultured in RPMI1640 medium containing 10% fetal bovine serum and 2 mM glutamine. The cells were grown at 37° C. in a humidified incubator with 5% CO2.
as §1, with “(3,000” for “(3000”

Test [3] concerns NCI-H1975 (EGFR L858R/T790M double mutant). As to the kind of experiment: Test 1: EGFR L858R/T790M (EGFR double mutant) cell proliferation test. As to conditions: Homo sapiens; NCI-H1975 cells, 72 hours, Cell Titer-Glo. The protocol: Test 1: EGFR L858R/T790M (EGFR Double Mutant) Cell Proliferation Test
The human lung cell line NCI-H1975 (EGFR L858R/T790M double mutant) was obtained from the American Type Culture Collection. NCI-H1975 cells were cultured in RPMI1640 medium containing 10% fetal bovine serum and 2 mM glutamine. The cells were grown at 37° C. in a humidified incubator with 5% CO2.
as §1, with “(8,000” for “(3000”

We go through seven compounds from US12258344B2, “Azaaromatic amide derivatives for the treatment of cancer” (SHENZHEN FORWARD PHARMACEUTICALS CO., LTD., priority 2019, dated 2025).

Broadly, the IC50 is the concentration that gives 50% inhibition. Read a high IC50 as lower potency.

Sequence of BaF3 (EGFR-A763insFQEA) (P00533 with tags, fused parts or gaps INS763FQEA): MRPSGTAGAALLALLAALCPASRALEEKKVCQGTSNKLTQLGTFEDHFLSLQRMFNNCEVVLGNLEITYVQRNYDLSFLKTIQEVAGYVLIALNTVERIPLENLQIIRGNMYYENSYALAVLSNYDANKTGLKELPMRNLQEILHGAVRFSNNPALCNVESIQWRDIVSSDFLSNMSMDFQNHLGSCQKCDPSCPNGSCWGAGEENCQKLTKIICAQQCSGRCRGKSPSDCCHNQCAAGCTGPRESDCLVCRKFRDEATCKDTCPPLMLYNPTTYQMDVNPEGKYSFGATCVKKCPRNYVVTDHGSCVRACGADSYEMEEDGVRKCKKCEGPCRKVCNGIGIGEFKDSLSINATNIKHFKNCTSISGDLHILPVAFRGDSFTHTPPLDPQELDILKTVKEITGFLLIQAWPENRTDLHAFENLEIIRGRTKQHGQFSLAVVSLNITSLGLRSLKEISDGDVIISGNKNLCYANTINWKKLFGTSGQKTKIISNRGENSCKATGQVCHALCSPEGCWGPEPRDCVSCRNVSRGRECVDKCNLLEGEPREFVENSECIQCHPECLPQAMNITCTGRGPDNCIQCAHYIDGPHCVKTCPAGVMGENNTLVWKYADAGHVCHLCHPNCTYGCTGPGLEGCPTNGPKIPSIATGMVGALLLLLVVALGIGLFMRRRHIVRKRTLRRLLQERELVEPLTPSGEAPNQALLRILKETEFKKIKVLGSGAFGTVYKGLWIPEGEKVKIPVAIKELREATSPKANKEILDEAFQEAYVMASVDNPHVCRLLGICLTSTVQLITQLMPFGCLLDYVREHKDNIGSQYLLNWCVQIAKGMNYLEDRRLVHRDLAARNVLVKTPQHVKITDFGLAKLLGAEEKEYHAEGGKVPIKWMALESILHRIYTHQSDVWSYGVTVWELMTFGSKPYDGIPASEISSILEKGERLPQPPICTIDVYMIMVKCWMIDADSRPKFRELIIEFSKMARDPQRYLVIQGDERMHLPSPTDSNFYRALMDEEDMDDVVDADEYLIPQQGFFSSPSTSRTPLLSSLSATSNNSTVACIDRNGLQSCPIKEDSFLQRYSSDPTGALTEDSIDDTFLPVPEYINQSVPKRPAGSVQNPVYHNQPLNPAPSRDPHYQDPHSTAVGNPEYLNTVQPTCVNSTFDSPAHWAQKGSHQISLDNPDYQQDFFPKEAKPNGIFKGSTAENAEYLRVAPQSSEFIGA
Sequence of BaF3 (EGFR-V769insASV) (P00533 with tags, fused parts or gaps DUP767-769): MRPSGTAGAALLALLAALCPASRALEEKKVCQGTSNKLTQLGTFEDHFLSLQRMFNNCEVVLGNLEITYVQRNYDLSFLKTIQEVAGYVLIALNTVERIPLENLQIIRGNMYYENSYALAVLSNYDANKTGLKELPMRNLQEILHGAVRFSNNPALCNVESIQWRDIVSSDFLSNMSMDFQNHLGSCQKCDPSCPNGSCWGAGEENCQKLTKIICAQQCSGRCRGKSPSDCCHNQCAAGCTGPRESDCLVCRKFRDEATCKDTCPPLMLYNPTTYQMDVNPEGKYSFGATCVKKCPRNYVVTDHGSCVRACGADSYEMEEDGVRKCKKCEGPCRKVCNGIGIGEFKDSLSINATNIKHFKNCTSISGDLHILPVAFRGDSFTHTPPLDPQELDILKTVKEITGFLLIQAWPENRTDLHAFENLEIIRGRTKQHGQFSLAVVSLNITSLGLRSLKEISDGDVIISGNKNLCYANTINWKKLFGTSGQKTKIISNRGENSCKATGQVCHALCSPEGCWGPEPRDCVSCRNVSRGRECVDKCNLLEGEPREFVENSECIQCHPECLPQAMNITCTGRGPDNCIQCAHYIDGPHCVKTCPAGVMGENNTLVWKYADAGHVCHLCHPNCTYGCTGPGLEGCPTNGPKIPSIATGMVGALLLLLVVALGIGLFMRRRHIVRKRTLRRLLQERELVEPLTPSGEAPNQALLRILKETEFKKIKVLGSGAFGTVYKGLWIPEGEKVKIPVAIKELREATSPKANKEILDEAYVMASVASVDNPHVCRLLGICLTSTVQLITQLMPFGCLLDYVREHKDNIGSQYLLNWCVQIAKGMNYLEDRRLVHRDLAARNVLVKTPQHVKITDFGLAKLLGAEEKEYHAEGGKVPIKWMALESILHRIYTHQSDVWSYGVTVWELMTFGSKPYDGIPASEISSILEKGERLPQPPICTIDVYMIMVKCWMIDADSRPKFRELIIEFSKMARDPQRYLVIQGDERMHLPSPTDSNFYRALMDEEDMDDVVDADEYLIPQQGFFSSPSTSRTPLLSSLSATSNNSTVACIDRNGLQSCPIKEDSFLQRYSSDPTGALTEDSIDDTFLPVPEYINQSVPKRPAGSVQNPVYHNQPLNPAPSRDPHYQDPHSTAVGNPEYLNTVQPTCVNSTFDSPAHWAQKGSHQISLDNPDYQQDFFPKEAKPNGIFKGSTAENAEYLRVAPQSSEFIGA
Sequence of BaF3 (EGFR-D770insSVD) (P00533 with tags, fused parts or gaps DUP768-770): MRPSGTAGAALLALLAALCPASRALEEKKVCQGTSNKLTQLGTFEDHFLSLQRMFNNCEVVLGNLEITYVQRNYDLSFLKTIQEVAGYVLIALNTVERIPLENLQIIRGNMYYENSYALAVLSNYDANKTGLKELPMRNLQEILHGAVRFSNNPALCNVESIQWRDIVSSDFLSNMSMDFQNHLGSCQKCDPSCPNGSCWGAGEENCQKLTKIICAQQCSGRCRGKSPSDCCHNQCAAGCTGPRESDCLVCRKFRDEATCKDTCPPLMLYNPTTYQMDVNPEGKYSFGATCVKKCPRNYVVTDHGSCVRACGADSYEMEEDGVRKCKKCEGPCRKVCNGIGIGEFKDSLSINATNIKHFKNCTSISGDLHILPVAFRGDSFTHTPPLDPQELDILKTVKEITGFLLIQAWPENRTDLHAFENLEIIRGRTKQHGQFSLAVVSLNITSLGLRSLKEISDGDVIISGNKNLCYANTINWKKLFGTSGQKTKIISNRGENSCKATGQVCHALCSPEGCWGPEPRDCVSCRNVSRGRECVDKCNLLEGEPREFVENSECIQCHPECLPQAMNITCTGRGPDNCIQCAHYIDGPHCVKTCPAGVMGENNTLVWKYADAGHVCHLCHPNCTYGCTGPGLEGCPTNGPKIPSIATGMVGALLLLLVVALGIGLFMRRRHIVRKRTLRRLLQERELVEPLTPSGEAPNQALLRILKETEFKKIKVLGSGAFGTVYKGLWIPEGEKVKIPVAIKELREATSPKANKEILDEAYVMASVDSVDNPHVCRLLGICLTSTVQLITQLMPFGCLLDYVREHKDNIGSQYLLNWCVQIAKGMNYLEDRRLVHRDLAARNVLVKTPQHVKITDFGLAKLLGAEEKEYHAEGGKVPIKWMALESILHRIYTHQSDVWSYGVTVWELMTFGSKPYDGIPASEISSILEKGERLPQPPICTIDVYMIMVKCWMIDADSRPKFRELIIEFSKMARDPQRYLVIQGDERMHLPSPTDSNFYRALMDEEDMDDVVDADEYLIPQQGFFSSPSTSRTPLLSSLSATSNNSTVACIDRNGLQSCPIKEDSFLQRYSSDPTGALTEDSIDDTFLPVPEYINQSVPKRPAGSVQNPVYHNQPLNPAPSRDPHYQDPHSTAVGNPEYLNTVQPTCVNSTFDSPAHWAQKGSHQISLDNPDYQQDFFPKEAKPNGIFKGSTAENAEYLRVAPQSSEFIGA
T1 sequence (P00533 25-1210 limits assumed, stated change not applied): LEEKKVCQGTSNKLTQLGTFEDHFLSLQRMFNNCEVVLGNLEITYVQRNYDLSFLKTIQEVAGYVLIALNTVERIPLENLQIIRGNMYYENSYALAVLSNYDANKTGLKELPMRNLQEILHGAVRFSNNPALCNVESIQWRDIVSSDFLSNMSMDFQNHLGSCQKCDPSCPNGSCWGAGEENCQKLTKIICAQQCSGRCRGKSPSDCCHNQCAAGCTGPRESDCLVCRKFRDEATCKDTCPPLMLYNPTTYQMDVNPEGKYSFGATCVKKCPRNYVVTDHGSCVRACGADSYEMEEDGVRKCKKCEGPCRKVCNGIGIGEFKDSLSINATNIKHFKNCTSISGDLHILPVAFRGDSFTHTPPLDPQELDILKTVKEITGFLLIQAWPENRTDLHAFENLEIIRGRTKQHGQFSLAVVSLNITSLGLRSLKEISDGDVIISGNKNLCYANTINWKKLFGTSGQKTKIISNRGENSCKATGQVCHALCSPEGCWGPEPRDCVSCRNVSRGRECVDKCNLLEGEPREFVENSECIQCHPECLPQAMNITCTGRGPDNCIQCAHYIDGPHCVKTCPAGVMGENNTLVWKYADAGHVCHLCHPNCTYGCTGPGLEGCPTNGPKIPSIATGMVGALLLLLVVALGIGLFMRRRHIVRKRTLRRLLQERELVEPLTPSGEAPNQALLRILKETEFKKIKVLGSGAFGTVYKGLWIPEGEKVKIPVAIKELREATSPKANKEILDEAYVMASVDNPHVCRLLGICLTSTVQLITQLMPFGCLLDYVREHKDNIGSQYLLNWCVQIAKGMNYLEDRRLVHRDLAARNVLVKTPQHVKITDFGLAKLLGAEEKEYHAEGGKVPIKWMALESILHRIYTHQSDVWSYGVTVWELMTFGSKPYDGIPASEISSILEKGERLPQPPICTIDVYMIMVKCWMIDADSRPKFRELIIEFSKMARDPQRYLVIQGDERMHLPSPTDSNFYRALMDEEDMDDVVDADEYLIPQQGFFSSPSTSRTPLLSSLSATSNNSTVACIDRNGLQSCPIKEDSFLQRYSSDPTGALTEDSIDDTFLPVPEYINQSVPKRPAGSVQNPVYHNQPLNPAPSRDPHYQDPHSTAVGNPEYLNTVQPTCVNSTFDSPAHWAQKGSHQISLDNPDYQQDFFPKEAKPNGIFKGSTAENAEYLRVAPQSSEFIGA

`C=CC(=O)Nc1cc(Nc2ncnc(N3CC(C)(C)c4ncccc43)n2)c(OC)cc1N(C)CCN(C)C` [Compound 17, N-(5-((4-(3,3-dimethyl-2,3-dihydro-1H-pyrrolo[3,2-b]pyridin-1-yl)-1,3,5-triazin-2-yl)amino)-2-((2-(dimethylamino)ethyl)(methyl)amino)-4-methoxyphenyl)acrylamide]: the GI50 was determined as 36.4 nM on BaF3 (EGFR/V769insASV), 58 nM on BaF3 (EGFR/D770insSVD) [2] and 14.7 nM at BaF3 (EGFR/A763insFQEA). Further, the “cell activity compared with Osimertinib (AZD9291) against EGFR exon 20 insertion mutations” value (“cell activity compared with Osimertinib” below) on BaF3 (EGFR/D770insSVD) [1] is given as “significant superior cell activity over Osimertinib (AZD9291)”.

In the case of `C=CC(=O)Nc1cc(Nc2nccc(-c3cnc4c(F)cccn34)n2)c(OC)cc1N(C)CCN(C)C` [Example 5, N-(2-((2-(dimethylamino)ethyl)(methyl)amino)-5-((4-(8-fluoroimidazo[1,2-a]pyridin-3-yl)pyrimidin-2-yl)amino)-4-methoxyphenyl)acrylamide], the GI50 at BaF3 (EGFR-D770insSVD) was determined as 144 nM; on BaF3 (EGFR-V769insASV), 148 nM; at BaF3 (EGFR-A763insFQEA) it was 42.6 nM. Moreover, the “cell activity compared with Osimertinib” value on BaF3 (EGFR/D770insSVD) [1] was “significant superior cell activity over Osimertinib (AZD9291)”. The compound further came in with an IC50 in test [3] of 19.5 nM.

As for `C=CC(=O)Nc1cc(Nc2nccc(-c3cnc4c(I)cccn34)n2)c(OC)cc1N(C)CCN(C)C` [Example 4, N-(2-((2-(dimethylamino)ethyl)(methyl)amino)-4-methoxy-5-((4-(8-iodoimidazo[1,2-a]pyridin-3-yl)pyrimidin-2-yl)amino)phenyl)acrylamide], the results for the GI50 at BaF3 (EGFR-D770insSVD), on BaF3 (EGFR-V769insASV) and on BaF3 (EGFR-A763insFQEA) were 592 nM, 470 nM and 313 nM, respectively. For the same compound, the “cell activity compared with Osimertinib” value on BaF3 (EGFR/D770insSVD) [1] was “significant superior cell activity over Osimertinib (AZD9291)”. This compound had an IC50 in test [3] of 66.7 nM.

For the compound `C=CC(=O)Nc1cc(Nc2nccc(-c3cnc4c(C(F)(F)F)cccn34)n2)c(OC)cc1N(C)CCN(C)C` [Example 6, N-(2-((2-(dimethylamino)ethyl)(methyl)amino)-4-methoxy-5-((4-(8-trifluoromethylimidazo[1,2-a]pyridin-3-yl)pyrimidin-2-yl)amino)phenyl)acrylamide], the GI50 on BaF3 (EGFR-D770insSVD) came to 518 nM; on BaF3 (EGFR-V769insASV), 477 nM; at BaF3 (EGFR-A763insFQEA), 277 nM. In addition, the “cell activity compared with Osimertinib” value at BaF3 (EGFR/D770insSVD) [1] is “significant superior cell activity over Osimertinib (AZD9291)”. In addition, the IC50 in test [3] is 91 nM.

With `C=CC(=O)Nc1cc(Nc2ncnc(-n3ccc4cnccc43)n2)c(OC)cc1N1CC[C@@H]1CN(C)C` [Example 1, (R)—N-(5-((4-(1H-pyrrole[3,2-c]pyridin-1-yl)-1,3,5-triazin-2-yl)amino)-2-(2-((dimethylamino)methyl)azetidine-1-yl)-4-methoxyphenyl)acrylamide], the GI50 at BaF3 (EGFR-D770insSVD) came out at 412 nM; on BaF3 (EGFR-V769insASV), 386 nM; on BaF3 (EGFR-A763insFQEA), 280 nM. The IC50 in test [3] was determined as 19.8 nM.

In turn, `COc1cc(N2CC[C@@H]2CN(C)C)c(NC(=O)/C=C/CN(C)C)cc1Nc1ncnc(-n2ccc3cnccc32)n1` [Example 2, (R,E)-N-(5-((4-(1H-pyrrole[3,2-c]pyridin-1-yl)-1,3,5-triazin-2-yl)amino)-2-(2-((dimethylamino)methyl)azetidine-1-yl)-4-methoxyphenyl)-4-(dimethylamino)butene-2-amide] had an IC50 in test [3] of 130 nM.

On to `C=CC(=O)Nc1cc(Nc2ncnc(-n3cc(C)c4cnccc43)n2)c(OC)cc1N(C)CCN(C)C` [Compound 18, N-(2-((2-(dimethylamino)ethyl)(methyl)amino)-4-methoxy-5-((4-(3-methyl-1H-pyrrolo[3,2-c]pyridin-1-yl)-1,3,5-triazin-2-yl)amino)phenyl)acrylamide], for which the GI50 at BaF3 (EGFR/V769insASV) came out at 244 nM; at BaF3 (EGFR/D770insSVD) [2] it was 320 nM; at BaF3 (EGFR/A763insFQEA) it was 131 nM. In addition, the “cell activity compared with Osimertinib” value at BaF3 (EGFR/D770insSVD) [1] is reported as “significant superior cell activity over Osimertinib (AZD9291)”.
